Data from US3984554A, “Animal fodder compositions containing a 4-amino-pyrimido-( 4,5,b)-quinoxaline-5,10-dioxide and method of using same” (Bayer Aktiengesellschaft, priority 1970, dated 1976).
≈ marks a conversion by molar mass, not a printed value.

Columns and labels:
[1] = test system: Pseudomonas aeruginosa Bonn; assay: Minimum inhibitory concentration (MIC) in the plate test; format: cell-based; settings: pH 7.4
Description: (§1) The compounds according to the invention are effective against Gram-negative and Gram-positive bacteria. Favorable inhibition values are obtained in the plate test (Table 1) against staphylococci and streptococci which are Gram-positive bacteria, and against enterobacteria (for example Escherichia coli, Proteus and Klebsiella) which are Gram-negative bacteria.
(§2) Minimum inhibitory concentration (MIC) in the plate test:
(§3) The medium used had the following composition
(§4) Disodium phosphate 2.0 g
(§5) Adenine sulphate 0.01 g
(§6) Guanine hydrochloride 0.01 g
(§7) 1000 ml of distilled water
(§8) pH value of the medium:
(§9) Minimum inhibitory concentrations in γ/ml

[2] = test system: Staphylococcus aureus 133; assay: as above; format: cell-based; settings: pH 7.4
Description: as §1, §2, §3, §4, §5, §6, §7, §8, §9

Klebsiella 8085 = assay: as above; format: cell-based; settings: pH 7.4
Description: as §1, §2, §3, §4, §5, §6, §7, §8, §9

Proteus vulgaris = assay: as above; format: cell-based; settings: pH 7.4
Description: as §1, §2, §3, §4, §5, §6, §7, §8, §9

Escherichia coli A 261 = assay: as above; format: cell-based; settings: A261, pH 7.4
Description: as §1, §2, §3, §4, §5, §6, §7, §8, §9

Streptococcus pyogenes W = assay: as above; format: cell-based; settings: pH 7.4
Description: as §1, §2, §3, §4, §5, §6, §7, §8, §9

Escherichia coli C 165 = assay: as above; format: cell-based; settings: C165, pH 7.4
Description: as §1, §2, §3, §4, §5, §6, §7, §8, §9

[3] = Chick fattening experiment (fodder additive); format: in vivo; settings: chicks, 20 ppm in fodder; for Ratio of total weight increase/control: control 100.0
Description: The good effectiveness of the compounds according to the invention as fodder additives can be seen from the chick fattening experiment described below (Table 2).
The substances, ground with the fodder, were fed to one-day old chicks. The feeding lasted for seven weeks. Table 2 below gives the experimental data for the compound obtainable according to Example 2, for each of the 7 weeks.

| Compound | MIC [1] | MIC [2] | MIC (Klebsiella 8085) | MIC (Proteus vulgaris) | MIC (Escherichia coli A 261) | MIC (Streptococcus pyogenes W) | MIC (Escherichia coli C 165) | also measured |
| --- | --- | --- | --- | --- | --- | --- | --- | --- |
| CNc1ncnc2c1[n+]([O-])c1ccccc1[n+]2[O-] [Example 1, 4-methylamino-pyrimido-(4,5,b)-quinoxaline-5,10-dioxide] | 50 µg/mL (≈ 206 µM) | 2.5 µg/mL (≈ 10.3 µM) | 5 µg/mL (≈ 20.6 µM) | 5 µg/mL (≈ 20.6 µM) | 5 µg/mL (≈ 20.6 µM) | 20 µg/mL (≈ 82.2 µM) | 5 µg/mL (≈ 20.6 µM) |  |
| CCNc1ncnc2c1[n+]([O-])c1ccccc1[n+]2[O-] [Example 2] | 150 µg/mL (≈ 583 µM) | 5 µg/mL (≈ 19.4 µM) | 10 µg/mL (≈ 38.9 µM) | 10 µg/mL (≈ 38.9 µM) | 20 µg/mL (≈ 77.7 µM) | 20 µg/mL (≈ 77.7 µM) | 160 µg/mL (≈ 622 µM) | Total weight increase ([3]; week 1, control 84): 92 g; Ratio of total weight increase/control ([3]; week 1): 109.5%; Ratio of total weight increase/control ([3]; week 2): 105.6%; Total weight increase ([3]; week 2, control 248): 262 g; Ratio of total weight increase/control ([3]; week 3): 108.6%; Total weight increase ([3]; week 3, control 429): 466 g; Ratio of total weight increase/control ([3]; week 4): 111.7%; Total weight increase ([3]; week 4, control 607): 678 g; Ratio of total weight increase/control ([3]; week 5): 107.7%; Total weight increase ([3]; week 5, control 922): 993 g; Ratio of total weight increase/control ([3]; week 6): 104.8%; Total weight increase ([3]; week 6, control 1250): 1310 g; Ratio of total weight increase/control ([3]; week 7): 106.4%; Total weight increase ([3]; week 7, control 1479): 1574 g |
| CCCNc1ncnc2c1[n+]([O-])c1ccccc1[n+]2[O-] [Example 3] | 150 µg/mL (≈ 553 µM) | 10 µg/mL (≈ 36.9 µM) | 100 µg/mL (≈ 369 µM) | 100 µg/mL (≈ 369 µM) | 100 µg/mL (≈ 369 µM) | 20 µg/mL (≈ 73.7 µM) | 100 µg/mL (≈ 369 µM) |  |
| CC(C)Nc1ncnc2c1[n+]([O-])c1ccccc1[n+]2[O-] [Example 4] | 150 µg/mL (≈ 553 µM) | 10 µg/mL (≈ 36.9 µM) |  | 100 µg/mL (≈ 369 µM) | 100 µg/mL (≈ 369 µM) | 20 µg/mL (≈ 73.7 µM) | 100 µg/mL (≈ 369 µM) |  |
| CCCCNc1ncnc2c1[n+]([O-])c1ccccc1[n+]2[O-] [Example 5] |  | 10 µg/mL (≈ 35 µM) |  |  |  | 20 µg/mL (≈ 70.1 µM) |  |  |
| [O-][n+]1c2ccccc2[n+]([O-])c2c(NC3CCCCC3)ncnc21 [Example 6] |  | 10 µg/mL (≈ 32.1 µM) |  |  |  |  |  |  |
| [O-][n+]1c2ccccc2[n+]([O-])c2c(NCCO)ncnc21 [Example 7] | 100 µg/mL (≈ 366 µM) | 100 µg/mL (≈ 366 µM) | 150 µg/mL (≈ 549 µM) | 100 µg/mL (≈ 366 µM) | 100 µg/mL (≈ 366 µM) | 10 µg/mL (≈ 36.6 µM) | 100 µg/mL (≈ 366 µM) |  |
